From BindingDB's records for doi:10.1021/jm00046a002 (Upjohn, 1994)

Experiments:
[1] = molecular target: T1, Dimer of Gag-Pol polyprotein [514-612] (Human immunodeficiency virus 2, UniProt P04584); assay: Protease Inhibition Assay
T1 construct: 514-612
T1 sequence (P04584 whole entry): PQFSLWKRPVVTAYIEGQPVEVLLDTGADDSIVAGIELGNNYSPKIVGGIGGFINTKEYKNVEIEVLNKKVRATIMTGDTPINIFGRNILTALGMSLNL
Text: (§1) HIV-1 protease was purified and refolded from E. coli inclusion bodies. The substrate used spans the p17-p24 processing site (R-V-S-Q-N-Y-P-I-V-Q-N-K) and was derivatized with biotin and fluorescein isothiocyanate (FITC) at the amino and carboxy termini. In the presence of HIV-l protease, the substrate is rapidly cleaved into two parts. The biotinylated amino terminal fragment binds to the avidin beads while the FITC-containing carboxy1 terminal fragment is removed through the membrane. […] The bound fluorescence is obtained by processing on an IDEXX Screen Machine. Determination of Ki values with this assay requires analysis under conditions in which substrate concentration resides substantially below Km and the inhibitor concentrations greatly exceeds the Ki value and the enzyme concentration.

[2] = molecular target: T2, Dimer of Gag-Pol polyprotein [489-587] (Human immunodeficiency virus 1, UniProt P12497); assay: Protease Inhibition Assay
T2 construct: 489-587
Text: as §1

| Compound | Ki [1] [nM] | Ki [2] [nM] |
| --- | --- | --- |
| CCC(Cc1ccccc1)c1cc(O)c(C(CC)c2ccccc2)c(=O)o1 (configuration not stated) [4-hydroxy-6-(1-phenylbutan-2-yl)-3-(1-phenylpropyl)-2H-pyran-2-one] | 32 |  |
| O=c1oc2c(c(O)c1C(c1ccccc1)C1CC1)CCCCCC2 (configuration not stated) |  | 15 |
